Experiments:
[1] = tested on: CLL cells; assay: LC3 confocal immunofluorescence (autophagosome formation) in CLL cells in vitro; assay type: cell-based, human; settings: CLL patient cells, 4 hours; rapamycin 5 μM, thapsigargin 1 μM, F-ara-A 5 μM, chlorambucil 20 μM, CAL-101 1 μM, rituximab 10 μg/ml, flavopiridol 2 μM, CQ 0.5 μM
Description: (§1) After 4 hours exposure to agents, cells were washed in phosphate-buffered saline (PBS) and made adherent on a microscope slide by centrifugation in a Cytospin3 (Shandon) centrifuge. Immediately after cytospin, cells were fixed in cold acetone. […] Nuclei were stained blue with DAPI (Vector Laboratories, Burlingame, Calif.). Images were taken using a 60× objective and 4× digital zoom with Olympus Fluoview 1000 Laser Scanning Confocal microscope at the Ohio State University Campus Microscopy and Imaging Facility. ATF6 antibody was purchased from LifeSpan Biosciences (Seattle, Wash.) and Nrf2 was from Santa Cruz Biotechnology (Santa Cruz, Calif.). Nuclei were evaluated for ATF6 and Nrf2 using confocal microscopy to collect Z stacks, approximately 45 slices per cell, 0.2 μm each.
LC3 intensity and number of dots per cell were both assessed in the fluorescence images. Integrated intensity was measured using Metamorph v.7.0. To calculate the number of “dots” (local extreme point in pixel-intensity profile at which a number of high-intensity pixels form a cluster), a Gaussian filter was first applied to reduce noise. Cells were enumerated electronically by an improved watershed-based algorithm. To quantify co-localization, two binary nuclei images—red (R) and green (G)—are obtained. The correlation value is calculated as the number of white pixels of (R&G) divided by the number of pixels of (RIG), where (R&G) is the intersection of R and G, and (RIG) is the union of R and G. The program used for cell counts and measurement of correlation index is based on MatLab software (Natick, Mass.) and it was developed by members of Department of Biomedical Informatics, The Ohio State University.

[2] = tested on: CLL cells; assay: LC3-Lamp2 co-localization (autophagosome-lysosome fusion) by confocal microscopy in CLL cells; assay type: cell-based, human; settings: CLL cells incubated with 5 μM rapamycin (FIG. 9)
Description: as §1
LC3 intensity and number of dots per cell were both assessed in the fluorescence images. Integrated intensity was measured using Metamorph v.7.0. To calculate the number of “dots” (local extreme point in pixel-intensity profile at which a number of high-intensity pixels form a cluster), a Gaussian filter was first applied to reduce noise. Cells were enumerated electronically by an improved watershed-based algorithm. To quantify co-localization, two binary nuclei images—red (R) and green (G)—are obtained. […]

[3] = tested on: XBP1, IRE1, GRP78; assay: Real-time RT-PCR of ER stress genes in CLL cells in vitro; assay type: cell-based, human; settings: CLL cells n=5; flavopiridol 2 μM, thapsigargin 1 μM, tunicamycin 3 μg/ml; CD52 control gene
Description: (§2) RNA was extracted using TRIzol reagent (Invitrogen, Carlsbad, Calif.) and purified using QIAGEN RNeasy columns (Qiagen, Valencia, Calif.). cDNA was prepared with SuperScript First-Strand Synthesis System (Invitrogen). Real-time PCR was performed using primers purchased from Applied Biosystems. Detection was performed using an ABI Prism 7700 sequence detection system (Applied Biosystems). Average relative expression (treatment compared with vehicle) was normalized to the internal control gene CD52. Primers to detect spliced XBP1 were designed using Primer 3 software and purchased from IDT. Samples were analyzed on 10% acrylamide gels.

[4] = tested on: 697 cells; assay: ChIP assay of ATF6 at GRP78 promoter in 697 cells; assay type: cell-based; settings: relative to IgG control
Description: In brief, cells were treated with 37% formaldehyde to ensure crosslinking of proteins to DNA. Cells were lysed and sonicated to shear the chromatin to fragments of approximately 500 bp. Sheared chromatin was incubated with ATF6 antibody (LifeSpan Biosciences, Seattle, Wash.), followed by precipitation, washing and reversing of the crosslinks Purified DNA was then analyzed by real-time quantitative PCR using primers to the GRP78 promoter region. Primers were designed using Primer 3 software and purchased from IDT (Coralville, Iowa).

[5] = tested on: IRE1; assay: XBP1 splicing (IRE1 activity) PCR in CLL cells; assay type: cell-based, human; settings: for induction of XBP1 splicing: CLL samples
Description: as §2

[6] = tested on: ATF6; assay: ATF6 nuclear translocation by confocal fluorescence microscopy in CLL cells; assay type: cell-based, human; settings: CLL patient cells, flavopiridol 2 μM or thapsigargin 1 μM, 4 hours
Description: After 4 hours exposure to agents, cells were washed in phosphate-buffered saline (PBS) and made adherent on a microscope slide by centrifugation in a Cytospin3 (Shandon) centrifuge. Immediately after cytospin, cells were fixed in cold acetone. Next, the cells were incubated in blocking solution (2% bovine serum albumin in PBS) and stained for LC3 (Cell Signaling, Boston, Mass.)) and Lamp2 (Santa Cruz Biotechnology, Santa Cruz, Calif.) by incubating separately with the respective primary antibodies over night, in 4° C., followed by incubation with fluorescent secondary antibodies (Invitrogen, Carlsbad, Calif.): Alexa fluor 594 (red) anti-rabbit for LC3 and Alexa fluor 488 (green) anti-mouse for Lamp2. Nuclei were stained blue with DAPI (Vector Laboratories, Burlingame, Calif.). Images were taken using a 60× objective and 4× digital zoom with Olympus Fluoview 1000 Laser Scanning Confocal microscope at the Ohio State University Campus Microscopy and Imaging Facility. ATF6 antibody was purchased from LifeSpan Biosciences (Seattle, Wash.) and Nrf2 was from Santa Cruz Biotechnology (Santa Cruz, Calif.). Nuclei were evaluated for ATF6 and Nrf2 using confocal microscopy to collect Z stacks, approximately 45 slices per cell, 0.2 μm each.

[7] = tested on: Jurkat cell line; assay: eIF2α phosphorylation immunoblot in cell lines (control); assay type: cell-based
Description: (§3) Proteins extracted from whole cell lysates (50 μg/lane) were separated on polyacrylamide gels and transferred on nitrocellulose membrane. Antibodies used for immunoblots included LC3, IRE1α, TRAF2, PI3K III, ATG4C, ATG5-12, UVRAG, Beclin-1 (Cell Signaling, Boston, Mass.), GAPDH, Nrf2, ASK1, ULK1 (Santa Cruz Biotechnology), and Bif-1, ATG14-Barkor (Sigma-Aldrich, St Louis, Mo.). Species-appropriate secondary antibodies were obtained from BioRad Laboratories (Hercules, Calif.). Following antibody incubations, proteins were detected using a chemiluminescent substrate (BioRad Laboratories). For co-immunoprecipitations, TrueBlot beads (eBiosciences, San Diego, Calif.) and One-hour IP Western kit (GenScript, Piscataway, N.J.) were used according to manufacturer protocols. Quantification was done using FluorChem Q (Alpha Innotech, San Leandro Calif.).

[8] = tested on: cell lines 293T, RAW and 697, normal B cells; assay: XBP1 splicing PCR in normal B cells and cell lines; assay type: cell-based
Description: as §2

[9] = tested on: JNK1 and p38MAPK; assay: Immunoblot of phosphorylated JNK1 and p38MAPK in CLL cells in vitro; assay type: cell-based, human; settings: flavopiridol 2 μM, thapsigargin 1 μM, F-ara-A 5 μM
Description: as §3

[10] = tested on: CLL cells; assay: Cell viability by annexin V/PI flow cytometry in CLL cells
Description: Percent of live cells was determined by staining with annexin V-fluorescein isothiocyanate and propidium iodide (PI). After exposure to agents, cells were washed with PBS and stained in 1× binding buffer (BD Biosciences, Franklin Lakes, N.J.). Cell viability was assessed by flow cytometry using a Beckman-Coulter Cytomics FC500 cytometer. Data were analyzed with the CXP Cytometer software package (Beckman-Coulter). A total of 10,000 cells were counted for each sample. The cells treated with flavopiridol were washed after 4 hours with PBS and re-suspended in regular growth medium (RPMI 1640) supplemented with 10% human serum and antibiotics for the remainder of the incubation time. […] For all the other conditions, cells were incubated with the respective drugs for 24 hours continuously.
CLL cells were suspended in buffer V (Amaxa kit, Lonza, Allendale, N.J.) and nucleofection was performed using program U016 (5 μg siRNA and 1×10^7 cells per cuvette). Scrambled siRNA and siRNAs to ATG5, ATG7 and ASK1 were purchased from Sigma-Aldrich. Cells were immediately suspended in warm, complete media supplemented with 10% human serum, and RNA was extracted after 36 hours. For CDK1 and CDK5, siRNAs were purchased from Applied Biosystems (Carlsbad, Calif.). Transfections were done using 5 nM siRNA per cuvette, and RNA was harvested at 48 hours.

[11] = tested on: PERK; assay: PERK activity by eIF2α phosphorylation immunoblot in CLL cells; assay type: cell-based, human
Description: as §3

[12] = tested on: caspase 4; assay: Caspase 4 activity (AFC assay) in CLL cells treated in vitro; assay type: cell-based, human; settings: Z-YVAD-FMK 20 μM in combination with flavopiridol, thapsigargin or tunicamycin
Description: (§4) The presence of active caspase enzymes was determined by the AFC assay. Briefly, lysates containing approximately 3×10^6 cells were incubated with 50 μM LEVD-AFC (caspase 4 substrate) or LETD-AFC (caspase 8 substrate) from MP Biomedicals (Solon, Ohio) in 2× cytobuffer from BioVision (Exton, Pa.) containing 10 mM dithiothretiol (DTT). Caspase 4 activity was measured one hour after addition of substrate and caspase 8 activity was measured 30 minutes after addition of substrate. Release of free AFC was measured with a Beckman-Coulter DTX 880 multimode detector (Filters: excitation, 405/10 nm; emission, 535/25 nm). Caspase 4 inhibitor Z-YVAD-FMK was purchased from R&D Systems.

[13] = tested on: caspase 8; assay: Caspase 8 activity (AFC assay) in CLL cells treated in vitro; assay type: cell-based, human; settings: Z-YVAD-FMK 20 μM in combination with flavopiridol, thapsigargin or tunicamycin
Description: as §4

Molecule: O=C(O)CCCc1ccc(N(CCCl)CCCl)cc1 [chlorambucil]
- LC3 aggregation / LC3 fluorescence (autophagosome formation) versus vehicle [1]: neither chlorambucil nor rituximab produced this effect

Molecule: CCN(CC)CCCC(C)Nc1ccnc2cc(Cl)ccc12 (centres unmarked) [chloroquine]
- chloroquine concentrations that inhibit autophagosome-lysosome fusion [2]: 0.1 to 0.5 µM

Molecule: C/C=C(/C)C(=O)O[C@H]1C(C)=C2[C@H]([C@@H]1OC(=O)CCCCCCC)[C@@](C)(OC(C)=O)C[C@H](OC(=O)CCC)[C@@]1(O)[C@H]2OC(=O)[C@@]1(C)O [thapsigargin]
- expression of ER stress genes XBP1, IRE1 and GRP78 [3]: significant, time-dependent increase in expression of ER stress genes XBP1, IRE1 and GRP78
- binding of GRP78 promoter region by ATF6 [4]: enhanced binding of the GRP78 promoter region by ATF6
- IRE1 activity (splicing of IRE1 substrate XBP1) ([5]; CLL cells): no evidence of IRE1 activity
- induction of XBP1 splicing [5]: neither thapsigargin nor tunicamycin induced XBP1 splicing in any of the samples analyzed
- LC3 aggregation / LC3 fluorescence (autophagosome formation) versus vehicle [1]: increase in LC3 aggregation
- ATF6 nuclear translocation [6]: increased nuclear translocation
- eIF2α phosphorylation [7]: dramatic EIF2α phosphorylation
- XBP1 splicing [8]: XBP1 splicing is detected
- phosphorylation of JNK1 and p38MAPK [9]: induced the phosphorylation of both JNK1 and p38MAPK
- effect of chloroquine addition on cell death caused by the agent ([10]; CLL cells, annexin/PI negative, CQ 0.5 μM, flavopiridol 4 hours then washed, CQ continuous 24 hours): significantly enhanced
- effect of ATG5/ATG7 siRNA vs scrambled siRNA on cytotoxicity of the agent ([10]; human, 24 h, 1 μM): significantly (P=0.0047) enhanced
- PERK activity (phosphorylation of eIF2α) [11]: minimally active

Molecule: Z-YVAD-FMK
- inhibition of agent-induced caspase 4 activity [12]: successfully inhibited
- inhibition of agent-induced caspase 8 activity [13]: successfully inhibited
- effect on flavopiridol-mediated cell death ([10]; CLL cells n=5, Z-YVAD-FMK 20 μM, flavopiridol 2 μM, 24 hours): significantly (P=0.012) reduced

Molecule: rituximab: agent used in CLL, from Genentech
- LC3 aggregation / LC3 fluorescence (autophagosome formation) versus vehicle [1]: neither chlorambucil nor rituximab produced this effect

Molecule: tunicamycin
- expression of ER stress genes XBP1, IRE1 and GRP78 [3]: significant, time-dependent increase in expression of ER stress genes XBP1, IRE1 and GRP78
- induction of XBP1 splicing [5]: neither thapsigargin nor tunicamycin induced XBP1 splicing in any of the samples analyzed

Source: patent US9044474B2, “Compositions and methods for increasing drug efficacy in cancer” (The Ohio State University, priority 2010, dated 2015)
